This is an account of results in paper PMC3319978 (Biochemical Pharmacology, 2011).

Broadly, the IC50 is the concentration needed to halve the response being measured.

In test [1] the test system is ATCC35218 E. coli blaTEM-1. Kind of test: Disc diffusion susceptibility testing. The settings on record: 10 μg of ampicillin and each inhibitor, MH agar, 37 °C, 18 h. Background: A growth-free zone around the sample is the usual read-out of agar diffusion tests.
The target of another test is PDC-3 β-lactamase (Pseudomonas aeruginosa, UniProt P24735, T105A). Kind of test: Inhibition of nitrocefin hydrolysis. Type of test: biochemical.
For another test, the system named is β-lactamases. The settings on record: serve as excellent substrates of the β-lactamases; ref 27 (Fisher et al.); cited from earlier work.

`CC1(C)S[C@@H]2[C@H](NC(=O)[C@H](N)c3ccccc3)C(=O)N2[C@H]1C(=O)O` [Ampicillin, ampicillin] returned a Zone diameter in test [1] of 6 mm.

For the molecule `O=C(O)[C@H]1/C(=C/CO)O[C@@H]2CC(=O)N21` [Clavulanic acid, clavulanic acid], the half-maximal inhibitory concentration (IC50) against PDC-3 β-lactamase was greater than 100 µM.

For the molecule `CC1(C)[C@H](C(=O)O)N2C(=O)[C@@H](NC(=O)Cc3ccccc3)[C@H]2S1(=O)=O` [compound 19, penicillin G sulfone], in the test with β-lactamases, the β-Lactamase inhibition entry was “poor β-lactamase inhibitors”.
